The data set in a line: physchem. Conditions: octan-1-ol/water, pH 7.4, LogD7.4.

Our source for the logD values is ChEMBL document CHEMBL3301361, “Experimental in vitro DMPK and physicochemical data on a set of publicly disclosed compounds”.

A word on the logD: it is lipophilicity at a set pH, counting ionised and neutral species. A lower logD goes with a more hydrophilic compound. Consider `COc1cccc(C(COCc2cc(C(F)(F)F)cc(C(F)(F)F)c2)N2CCNCC2)c1` (stereo not drawn), for which the log distribution coefficient (logD) was 3.1.
`CCN1CCN(CC(=O)Nc2ccc(-c3cccc4c(=O)cc(N5CCOCC5)oc34)c3sc4ccccc4c23)CC1` gave a log distribution coefficient (logD) of 3.05.
For `Fc1ccc(C(COCc2cc(C(F)(F)F)cc(C(F)(F)F)c2)N2CCNCC2)cc1` (stereo not drawn) the value was 3; for `O=S(=O)(NCC(c1ccccc1)N1CCCCCC1)c1cccc(C(F)(F)F)c1` (stereo not drawn), 3.12.
As for `COc1ccc(S(=O)(=O)NCC(c2ccccc2)N2CCCCCC2)cc1` (stereo not drawn), the figure is 3.13; as for `CC(C)Cn1c(=O)[nH]c(=O)c2c(C(=O)N3CCC3)c(Cc3ccccc3C(F)(F)F)sc21`, 3.
`CCCc1c(OCCCOc2ccc3c(=O)cc(C(=O)O)oc3c2CCC)ccc(C(C)=O)c1O`: the logD was 3.
`CNc1ccc2ncc(-c3cccc(O)c3)n2n1` showed a log distribution coefficient (logD) of 2.99.
As for `COc1c(C#N)cc2ccccc2c1C(=O)N(C)C[C@@H](CCN1CCC(N2CCCNC2=O)CC1)c1ccc(Cl)c(Cl)c1`, the figure is 3.
For `O=C(COCc1cscn1)N1CCN(c2ccc(Cl)cc2Cl)CC1` the value was 3.07; for `CCN(C(=O)Nc1ccccc1)c1ccccc1`, 3.1; for `COc1cnc(-c2ccccn2)nc1Oc1ccc(F)cc1F`, 3.1.
`CC(O)(C(=O)Nc1ccc(S(=O)(=O)c2ccccc2)cc1)C(F)(F)F` (stereo not drawn) had a logD of 2.98.
Turning to `CCN1CCN(C(=O)c2cc3cc(Cl)ccc3[nH]2)CC1`, the logD turned out to be 3.14.
`CCOc1ccc(-c2cnc3n2CCCCC3)cc1`: the logD was determined as 3.01.
For `Nc1c2c(nc3ccc(Br)cc13)N(c1ccccc1)CC2` the value was 3.12; for `Nc1nc2ccc(-c3cccc(O)c3)cc2s1`, 3.1.
For `O=C1CCOc2nc(C#CC3CCCC3)ccc21` the value was 3; for `O=C1CCOc2nc(OCc3ccccc3)ccc21`, 3.1; for `CN1CCOc2cc(COC3CCCCC3)cnc21`, 3.1.
For `CC[C@H](NC(=O)c1c(CC[S+](C)[O-])c(-c2ccccc2)nc2ccccc12)c1ccccc1` (stereo partly drawn) the value was 3.15; for `CC[C@H](NC(=O)c1c([S+](C)[O-])c(-c2cccc(F)c2)nc2ccccc12)c1ccccc1` (stereo partly drawn), 3.14; for `CC[C@H](NC(=O)c1c([S+](C)[O-])c(-c2ccccc2)nc2cc(Cl)ccc12)c1ccccc1` (stereo partly drawn), 3.07.
Compound `O=C(NCc1ccccc1)c1cccnc1Oc1ccccc1` came in with a logD of 3.
Compound `COc1cccc(Nc2ncnc3cc(OC)c(OC)cc23)c1` had a logD of 3.1.
For `C#CC(C)(C)NC(=O)c1sccc1Oc1ccc(F)cc1[N+](=O)[O-]` the value was 3; for `FC(F)(F)c1nnc2ccc(N3CCCCC3)nn12`, 3.
As to `CSc1ccc(-c2nc(-c3ccc(F)cc3)c(-c3ccncc3)[nH]2)cc1`, the logD was determined as 2.97.
As for `Cc1ncccc1Oc1ncnc(OC2C3COCC2CN(C(=O)OC(C)C)C3)c1C` (stereo not drawn), the figure is 3.1.
As for `COc1cc(N2CCN(CCS(C)(=O)=O)CC2)ccc1Nc1ncc(Cl)c(-c2cnc3ccccn23)n1`, the figure is 3.1; as for `COc1cc(N2CCN(C(C)=O)CC2)ccc1Nc1nccc(-c2cnc3ccccn23)n1`, 3.
For `CN(C)c1nc(N[C@H]2CC[C@@H](NC(=O)c3ccc(F)c(F)c3)CC2)nc2ccccc12` the value was 3.13; for `COc1ccc(C(=O)Nc2cc(NC(=O)c3cccc(N(C)C)c3)ccc2C)cc1`, 3.17.
The compound `O=C(Cc1ccccc1)c1ccc(O)cc1O` gave a pH-dependent lipophilicity (logD) of 3.09.
With `CONC(=O)c1cnc(N2CCC(NC(=O)c3[nH]c(C)c(Cl)c3Cl)CC2)s1`, the logD turned out to be 3.1.
In the case of `CNc1c(Br)cnc2nc(-c3ccc(OCCCN4CCOCC4)cc3)[nH]c12`, the logD was 2.96.
For `COc1ccc(-c2nc3c(NCCCNC(=O)C4CCCC4)c(C(N)=O)cnc3[nH]2)cc1` the value was 3.13; for `Nc1nc2nc(SCc3ccccc3)nc(N)c2s1`, 3.1; for `CN(C)C(=O)N[C@H]1CC[C@H](CCN2CCN(c3ccc(Cl)c(Cl)c3)CC2)CC1`, 3.15.
For `Cc1ccc(-c2ncc[nH]2)cc1NC(=O)c1ccc(OCc2ccccn2)cc1` the value was 3.01; for `Cc1nc(-c2ccc(C)c(NC(=O)c3ccc(OCc4ccccn4)cc3)c2)c[nH]1`, 2.97.
With `Cc1ccc(-c2ncc(CN3CCOCC3)s2)cc1NC(=O)c1ccc(OCc2ccccn2)cc1`, the logD was found to be 3.1.
For `C[C@@H]1CN(C(=O)OC(C)(C)C)CCN1c1ncc(OCc2ccc(S(C)(=O)=O)cn2)cn1` the value was 3; for `C[C@@H]1CN(C(=O)OCC(F)(F)F)CCN1c1ncc(OCc2ccncc2C#N)cn1`, 3; for `Cn1cc(C#N)cc1-c1c2c(=O)n(CCO)c(=O)n(CC3CC3)c2nn1Cc1ccnc2ccc(Cl)cc12`, 3.
As for `CCN(CC)CCOc1ccc(N(C)C(=O)c2ccc(-c3ccc(C(F)(F)F)cc3)cc2)cc1OC`, the figure is 3.13; as for `COc1cc(OC2CCN(C)CC2)c2c(Nc3c(Cl)ccc4c3OCO4)ncnc2c1`, 2.98; as for `Cc1cn(C2CCCN(Cc3cccc(Oc4ccccc4)c3)C2)c(=O)[nH]c1=O` (stereo not drawn), 3.04.
For `CC(C)Cn1c(=O)n(C)c(=O)c2c(C(=O)N3C[C@H](O)CO3)c(Cc3ccccc3C(F)(F)F)sc21` the value was 3.15.
In the case of `Nc1ncccc1NCc1cccc(-c2cccnc2)c1`, the log distribution coefficient (logD) came to 3.
For `CN(C)S(=O)(=O)c1ccc2c(C(=O)NC[C@@H](O)CN3CCC(Oc4ccc(Cl)c(Cl)c4)CC3)c[nH]c(=O)c2c1` the value was 3.13; for `O=C(NC[C@@H](O)CN1CCC(Oc2ccc(Cl)c(Cl)c2)CC1)c1c[nH]c(=O)c2c(F)cccc12`, 3.15; for `Cc1cc(Cl)ccc1OC1CCN(C[C@H](O)CNC(=O)c2c[nH]c(=O)c3c(F)cccc23)CC1`, 3.
The compound `O=C(NC[C@@H](O)CN1CCC(Oc2ccc(Cl)c(Cl)c2)CC1)c1c[nH]nc1C1CC1` gave a logD of 3.15.
Turning to `N#Cc1cccc(OC[C@@H](O)CNC2CCN(Cc3ccc(Cl)c(Cl)c3)CC2)c1`, the logD is 3.09.
`COc1cc2ncnc(Nc3ccc(F)cc3)c2cc1OC` returned a logD of 3.1.
Turning to `C[S+]([O-])CCN1C(=O)C(NC(=O)c2cc3cc(Cl)sc3[nH]2)Cc2ccccc21` (stereo not drawn), the log distribution coefficient (logD) was 3.17.
For `O=C(NC1Cc2ccccc2N(CCO)C1=O)c1cc2cc(Cl)sc2[nH]1` (stereo not drawn) the value was 3.05; for `COCCOc1ccc(Nc2ncc3cc(-c4ccncc4)ccc3n2)cc1`, 3.1.
For `COCCC(=O)NC(C)c1ccc(Nc2ncc3cc(-c4ccncc4)ccc3n2)cc1` (stereo not drawn), the log distribution coefficient (logD) was 2.98.
For `COCCC(=O)N[C@H](C)c1ccc(Nc2ncc3cc(-c4ccncc4)ccc3n2)cc1` the value was 3.08.
As for `COCCC(=O)N[C@@H](C)c1ccc(Nc2ncc3cc(-c4ccncc4)ccc3n2)cc1`, the figure is 3.05; as for `CC(=O)NC(C)c1ccc(Nc2ncc3cc(-c4ccncc4)ccc3n2)cc1` (stereo not drawn), 3.1.
Compound `C[C@@H](NC1=CC(=O)NCC1)c1ccc(Nc2ncc3cc(-c4ccncc4)ccc3n2)cc1` had a log distribution coefficient (logD) of 3.02.
`COc1cc2nc(Nc3ccc([C@@H](C)NC(C)=O)cc3)ncc2cc1-c1ccncc1` had a logD of 3.11.
`c1cn(-c2ccc(Oc3cc(Oc4ccc5c(c4)OCO5)ncn3)cc2)cn1` showed a pH-dependent lipophilicity (logD) of 3.17.
With `NS(=O)(=O)c1cccc(Nc2nccc(Nc3c(Cl)ccc4c3OCO4)n2)c1`, the log distribution coefficient (logD) stood at 2.97.
`COc1ccc(-c2cc(NC(=O)Cc3ccc4ccccc4c3)[nH]n2)cc1OC`: the logD was 3.1.
As for `COc1cccc([C@@H](C)NCCCc2ccccc2Cl)c1`, the figure is 3; as for `COc1cc2ncnc(Nc3ccc(F)c(Cl)c3)c2cc1OCCCN1CCCC1`, 3.13.
As for `COc1ccc(-n2sc3ccccc3c2=O)cc1`, the figure is 3.02.
Take `CC(=O)NC[C@H]1CN(c2ccc(N3Cc4ccncc4C3)c(F)c2)C(=O)O1`: the logD was found to be 3.02.
`CC(O)(C(=O)Nc1ccc(S(=O)(=O)c2ccc(F)cc2)cc1)C(F)(F)F` (stereo not drawn) had a pH-dependent lipophilicity (logD) of 3.12.
As for `O=C1NC(=O)c2cc(OCc3ccccc3)ccc21`, the figure is 3.1.
For `Cc1ccc(NC(=O)c2cccc(N(C)C)c2)cc1NC(=O)c1ccc(OC(C)C)cc1` the value was 3.1; for `C[C@H](CO)Nc1nc(SCc2cccc(F)c2F)nc2nccnc12`, 3.15.
In the case of `COc1ccc(C(=O)Nc2cc(NC(=O)c3cccc(N(C)C)c3)ccc2C)cc1OC`, the logD was 3.12.
`CC(C)C(NC(=O)Cn1c(-c2cccnc2)ccc(NC(=O)OCc2ccccc2)c1=O)C(=O)C(F)(F)F` (stereo not drawn) had a logD of 3.05.
Compound `CC(c1ccccc1)N1Cc2ccccc2C1=O` (stereo not drawn) came in with a logD of 3.
The compound `CNC(=O)c1ccc(Nc2ncc(F)c(-c3cnc(C)n3C(C)C)n2)cc1` showed a logD of 3.
For `Cc1ncc(-c2nc(Nc3ccc(C(N)=O)c(F)c3)ncc2F)n1C(C)C`, the logD amounted to 3.14.
As for `O=c1oc2ccc(O)cc2cc1-c1ccccc1`, the figure is 3.12; as for `COc1ccc(N(C(=O)c2ccccc2)C(C)C(=O)NC2CCCC2)c(OC)c1` (stereo not drawn), 3.02; as for `Cc1ccc(NC(=O)c2cccc(C(F)(F)F)c2)cc1NC(=O)c1cccnc1`, 3.11.
Take `O=C1C(=O)c2cc(-c3ccsc3)ccc2-c2ccccc21`: the logD amounted to 3.1.
For `COc1cc2ncc(C(N)=O)c(Nc3cc(C)ccc3F)c2cc1OC` the value was 3.16.
As for `O=C(CC1CCN(Cc2ccn(-c3ccc(C(F)(F)F)cc3)c2)CC1)NC(c1ccc(F)cc1)c1c[nH]c(=O)c(Cl)c1` (stereo not drawn), the figure is 3.12.
`O=C(CC1CCN(Cc2ccn(-c3ccc(C(F)(F)F)cc3)c2)CC1)N(CCCO)Cc1ccc(F)cc1`: the log distribution coefficient (logD) stood at 3.04.
For `O=C(CC1CCN(Cc2ccn(-c3ccc(C(F)(F)F)cc3)c2)CC1)NC(c1ccc(F)cc1)c1ccc(=O)[nH]c1` (stereo not drawn) the value was 3.04; for `CCNc1nc(C#N)nc(Nc2ccccc2)n1`, 3.11; for `Oc1ccc(-c2ccc3cc(O)ccc3n2)cc1`, 3.1.
As for `O=c1oc2ccccc2cc1-c1ccc(O)cc1`, the logD was 3.
As for `C=CCNS(=O)(=O)c1ccc(NC(=O)[C@@](C)(O)C(F)(F)F)c(Cl)c1`, the figure is 3.07.
